From article PMC9300616, “Grape seed proanthocyanidin extract inhibits DNA and protein damage and labile iron, enzyme, and cancer cell activities” (Scientific Reports, 2022)

What was measured:
ferritin = test: Labile iron inhibition assay (superoxide-dependent iron release from ferritin); assay type: biochemical; conditions: for Labile Iron IC50: inhibition of iron release from ferritin, mean ± SD of three experiments
Description: The mixture was illuminated using a fluorescent lamp for 90 min at 25 °C. The labile iron content was measured as described by Ibrahim et al.[22].

mushroom tyrosinase = test: Tyrosinase inhibition assay; assay type: biochemical; conditions: mean ± SD of three experiments
Description: Tyrosinase inhibitory activity was measured as described by Habib et al.[17]. […] After 10 min of incubation at 37 °C, 1 mL of mushroom tyrosinase (50 units/mL, dissolved in 0.2 M phosphate buffer, pH 6.8), was added to the mixture. The absorbance was recorded after 10 min at 475 nm. A 50% ethanol solution was used as a blank, and 1 mL of deionized water was used as the control. % Tyrosinase inhibitory activity was calculated according to Eq. (1) as described above.

[1] = tested on: Bovine Serum Albumin (BSA); test: Protein oxidation induced by AAPH, SDS-PAGE; conditions: for Fragmentation of BSA reduced by: AAPH 30 min
Description: Alkylperoxyl radical-induced oxidation of Bovine Serum Albumin (BSA) was performed as described by Habib et al.[17]. In brief, BSA (0.5 mg mL^−1) was incubated with AAPH (20 mM) in the presence or absence of different extracts in a shaking water bath at 37 °C for 30 min. A protein sample without AAPH was used as control. After treatment, protein samples were mixed with loading buffer and heated at 100 °C for 5 min. An aliquot of each sample was loaded and separated using 10% SDS-PAGE under reducing conditions. The free stained gels were imaged using a ChemiDoc MV gel documentation system (Bio-Rad, Hercules, CA, USA). To determine the amount of protein damage, band intensity was determined using the Image Lab 4.1 software (version 6.1.0 build 7) (Bio-Rad, Hercules, CA, USA). The optical density of each band was determined and standardized for the control group.

[2] = ABTS free radical-scavenging assay; assay type: biochemical; conditions: for ABTS IC50: concentration that scavenges free radicals by 50%, mean ± SD of three experiments
Description: Determination was conducted based on the method reported by Platat et al.[62]. The results were expressed as the percentage of ABTS^· radical inhibition calculated using Eq. (1) as described above.

pBR322 plasmid DNA = test: DNA damage by free radicals (H2O2 + UV), agarose gel; assay type: biochemical; conditions: for supercoiled (SC) form of pBR322 DNA: H2O2 + UV; for DNA damage inhibition IC50: pBR322 DNA + H2O2 + UV, mean ± SD of three experiments
Description: The assay was performed using the method described by Habib et al.[17]. Briefly, 6 μL of 30% H2O2 was added to an Eppendorf tube with a volume of 20 μL containing 6 μL of PBS buffer, 0.2 μg of pBR322 DNA in 2 μL of 50 mM PBS (pH 7.4), and 4 μL of samples. The reactions were initiated by UV irradiation and sustained for 5 min on the surface of a UV transilluminator TFM-26 (UVP, Upland, CA, USA), with an intensity of […] at 312 nm at room temperature. At the end of the reaction, the samples were run on 0.8% agarose. […] Vitamin C and Rutin were used as positive controls.

Porcine α-amylase = target: T1, Porcine α-amylase (Sus scrofa, UniProt P00690); test: Porcine α-amylase inhibition assay; assay type: biochemical; conditions: mean ± SD of three experiments
T1 sequence (P00690 16-511): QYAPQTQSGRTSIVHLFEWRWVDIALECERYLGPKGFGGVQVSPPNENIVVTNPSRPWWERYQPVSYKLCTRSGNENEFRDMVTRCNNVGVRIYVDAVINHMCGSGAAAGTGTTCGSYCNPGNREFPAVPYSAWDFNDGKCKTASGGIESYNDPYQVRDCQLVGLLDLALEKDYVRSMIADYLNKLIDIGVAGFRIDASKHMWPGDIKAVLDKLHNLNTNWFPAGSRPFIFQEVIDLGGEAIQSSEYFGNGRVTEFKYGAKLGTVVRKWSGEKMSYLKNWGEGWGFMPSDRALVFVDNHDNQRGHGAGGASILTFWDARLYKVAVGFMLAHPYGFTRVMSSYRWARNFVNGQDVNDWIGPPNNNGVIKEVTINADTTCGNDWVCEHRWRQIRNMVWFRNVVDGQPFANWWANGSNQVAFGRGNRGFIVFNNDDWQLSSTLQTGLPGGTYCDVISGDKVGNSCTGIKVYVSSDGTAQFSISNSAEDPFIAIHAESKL
Description: Inhibition of porcine α-amylase activity was described by Habib et al.[17]. […] For 10 min, the mixture was incubated at 25 °C, and then 50 µL 1% starch solution in 20 mM sodium phosphate buffer at pH 6.9 with 6 mM NaCl was added. The mixture was incubated at 25 °C, followed by addition of a color reagent (1 mL dinitrosalicylic acid). To stop the reaction, the mixture was kept for 10 min in a water bath at 100 °C and then cooled to 25 °C. 1 mL of deionized water was added, and the absorbance was read at 540 nm using a 96-well microplate reader. Inhibition of porcine α-amylase was estimated using Eq. (1) as described above.

[3] = DPPH free radical-scavenging assay; assay type: biochemical; conditions: concentration that scavenges free radicals by 50%; mean ± SD of three experiments
Description: The estimation was based on the method reported by Habib et al.[61]. The results were expressed as the percentage inhibition of the DPPH^· radical. The percentage of inhibition of DPPH^· radical was calculated using the following equation:1 %ofDPPH^·inhibition=Abscontrol-Abssample/Abscontrol×100
where Abs control is the absorbance of DPPH^· solution without the tested sample.

SMILES | percentage inhibition of iron release from ferritin (ferritin; at 10 μg) | percentage inhibition of iron release from ferritin (ferritin; at 50 μg) | percentage inhibition of iron release from ferritin (ferritin; at 100 μg) | Labile Iron IC50 (ferritin) | Tyrosinase IC50 (mushroom tyrosinase) | Fragmentation of BSA reduced by ([1]; at 0.1 mg/mL) | Fragmentation of BSA reduced by ([1]; at 5 mg/mL) | BSA damage inhibition IC50 ([1]; BSA + AAPH, mean ± SD of three experiments) | ABTS scavenging ([2]; at 0.1 mg/mL) | ABTS scavenging ([2]; at 5 mg/mL) | ABTS IC50 [2] | supercoiled (SC) form of pBR322 DNA (pBR322 plasmid DNA; at 0.1 mg/mL) | supercoiled (SC) form of pBR322 DNA (pBR322 plasmid DNA; at 5 mg/mL) | DNA damage inhibition IC50 (pBR322 plasmid DNA) | IC50 (Porcine α-amylase) | Porcine α-amylase IC50 (Porcine α-amylase) | DPPH IC50 [3]
O=C(O)c1cc(O)c(O)c(O)c1 [Gallic acid] | 50.68 ± 0.18% | 59.22 ± 0.81% | 68.55 ± 0.38% | 4.86 ± 0.23 µg/mL |  |  |  |  |  |  |  |  |  |  |  |  | 
C[C@@H]1O[C@@H](OC[C@H]2O[C@@H](Oc3c(-c4ccc(O)c(O)c4)oc4cc(O)cc(O)c4c3=O)[C@H](O)[C@@H](O)[C@@H]2O)[C@H](O)[C@H](O)[C@H]1O [Rutin] | 85.32 ± 0.56% | 90.30 ± 0.01% | 96.65 ± 0.01% | 0.08 ± 0.14 µg/mL | 72.08 ± 0.54 µg/mL | 94.12 ± 0.20% | 99.10 ± 0.24% | 4.42 ± 0.24 µg/mL | 48.10 ± 0.07% | 90.13 ± 0.04% | 6.31 ± 1.00 µg/mL | 13.50 ± 0.52% | 66.50 ± 0.57% | 2.45 ± 0.13 µg/mL | 130 µM |  | 
Cc1c(C)c2c(c(C)c1O)CCC(C)(C(=O)O)O2 (centres unmarked) [Trolox] | 39.33 ± 0.54% | 84.79 ± 3.00% | 87.87 ± 1.87% | 12.57 ± 0.64 µg/mL |  |  |  |  |  |  |  |  |  |  |  |  | 
O=C1O[C@H]([C@@H](O)CO)C(O)=C1O [VC, vitamin C] |  |  |  |  | 42.74 ± 0.23 µg/mL |  |  |  | 88.29 ± 0.22% | 92.69 ± 0.32% | 0.68 ± 0.12 µg/mL | 11.50 ± 0.63% | 19.10 ± 0.91% | 42.03 ± 1.06 µg/mL |  | 87.24 ± 0.71 µg/mL | 880 ± 0.52 µg/mL
